Measurements reported in US10385103B2, “Cell-permeable (ICP)-SOCS3 recombinant protein and uses thereof” (CELLIVERY THERAPEUTICS, INC., priority 2014, dated 2019).

Test system: RAW 264.7 cells
Assay: Quantitative cell-permeability of FITC-labeled aMTD- or rPeptide-fused CRA recombinant proteins (flow cytometry)
Format: cell-based
Settings: for Relative Ratio to aMTD AVE: cell-permeability of rPeptide-fused CRA recombinant protein relative to average of 240 aMTDs
Excerpt: The aMTDs and rPeptides were fluorescently labeled and compared based on the critical factors for cell-permeability by using flow cytometry and confocal laser scanning microscopy (FIGS. 5 to 8). The cellular uptake of the peptide-fused non-functional cargo recombinant proteins could quantitatively be evaluated in flow cytometry, while confocal laser scanning microscopy allows intracellular uptake to be assessed visually. The analysis included recombinant proteins fused to a negative control [rP38] that has opposite characteristics (hydrophilic and aromatic sequence: […] NO: 952)) to the aMTDs (hydrophobic and aliphatic sequences). Relative cell-permeability (relative fold) of aMTDs to the negative control was also analyzed (Table 23 and FIG. 9). […] RAW 264.7 cells were treated with 10 μM FITC-labeled recombinant proteins for 1 hour at 37° C., washed three times with cold PBS, treated with 0.25% tripsin/EDTA (Sigma-Aldrich, St. Louis, Mo.) for 20 minutes at 37° C. to remove cell-surface bound proteins. Cell-permeability of these recombinant proteins were analyzed by flow cytometry (Guava, Millipore, Darmstadt, Germany) using the FlowJo cytometric analysis software (FIGS. 5 to 6).

[1] = cell-permeability of aMTD-fused CRA recombinant protein relative to negative control (A: rP38)
[2] = cell-permeability of aMTD-fused CRA recombinant protein relative to reference CPP (B: MTM12)
[3] = cell-permeability of aMTD-fused CRA recombinant protein relative to reference CPP (C: MTD85)
[4] = cell-permeability relative to negative control rP38 (A type), aMTD-fused CRA recombinant protein, 10 μM FITC-labeled, 1 hour, 37° C., RAW 264.7 cells
[5] = cell-permeability relative to reference CPP MTD85 (C type), aMTD-fused CRA recombinant protein, 10 μM FITC-labeled, 1 hour, 37° C., RAW 264.7 cells
[6] = cell-permeability relative to reference CPP MTM12 (B type), aMTD-fused CRA recombinant protein, 10 μM FITC-labeled, 1 hour, 37° C., RAW 264.7 cells
[7] = 10 μM FITC-labeled, 1 hour, 37° C., RAW 264.7 cells

Substance	Relative Ratio (Fold) A [1] [Fold]	Relative Ratio (Fold) B [2] [Fold]	Relative Ratio (Fold) C [3] [Fold]	Relative Ratio (Fold) A [4] [Fold]	Relative Ratio (Fold) C [5] [Fold]	Relative Ratio (Fold) B [6] [Fold]	also measured
725 (IAVLAVAPAVLP; Amino acid Sequence of aMTD725) [compound 725]	11.2	7.5	3.8	–	–	–	–
645 (ALAVVALPAIVP; Amino acid Sequence of aMTD645) [compound 645]	–	–	–	4.3	1.5	2.9	–
887 (VLAVAPAVAVLP; Amino acid Sequence of aMTD887) [compound 887]	7.7	5.1	2.6	–	–	–	–
124 (IAVALPALIAAP; Amino acid Sequence of aMTD124) [compound 124]	43.6	29.0	14.7	–	–	–	–
325 (IVAVALPAVALP; Amino acid Sequence of aMTD325) [compound 325]	11.7	7.8	4.0	–	–	–	–
882 (AIALVVPAVAVP; Amino acid Sequence of aMTD882) [compound 882]	35.0	23.4	11.8	–	–	–	–
245 (AAALAPVLALVP; Amino acid Sequence of aMTD245) [compound 245]	7.5	5.0	2.5	–	–	–	–
524 (AVALIVVPALAP; Amino acid Sequence of aMTD524) [compound 524]	18.3	12.2	6.2	–	–	–	–
5 (AAALLPVALVAP; Amino acid Sequence of aMTD5) [compound 5]	–	–	–	3.1	1.0	2.1	–
43 (LLAAPLVVAAVP; Amino acid Sequence of aMTD43) [compound 43]	–	–	–	2.1	0.7	1.4	–
888 (ILAVVAIPAAAP; Amino acid Sequence of aMTD888) [compound 888]	71.0	47.5	24.0	–	–	–	–
831 (IIVAVAPAAIVP; Amino acid Sequence of aMTD831) [compound 831]	46.3	31.0	15.7	–	–	–	–
17 (GGCSAPQTTCSN; Amino acid Sequence of rPeptide ID 17) [compound 17]	–	–	–	–	–	–	Relative Ratio to aMTD AVE [7]: 0.08
143 (AVLAVPAVLVAP; Amino acid Sequence of aMTD143) [compound 143]	–	–	–	3.3	1.1	2.2	–
64 (AIVALPVAVLAP; Amino acid Sequence of aMTD64) [compound 64]	15.8	10.6	5.3	–	–	–	–
683 (LAIVLAAPAVLP; Amino acid Sequence of aMTD683) [compound 683]	–	–	–	5.5	1.9	3.2	–
684 (AAIVLALPAVLP; Amino acid Sequence of aMTD684) [compound 684]	–	–	–	3.5	1.2	2.1	–
895 (AIIIVVPAIAAP; Amino acid Sequence of aMTD895) [compound 895]	60.8	40.7	20.6	–	–	–	–
507 (VAIALAPVVVAP; Amino acid Sequence of aMTD907) [compound 507]	8.1	5.4	2.8	–	–	–	–
872 (VLAAAVLPLVVP; Amino acid Sequence of aMTD872) [compound 872]	–	–	–	7.3	2.5	4.9	–
105 (LLALAPAALLAP; Amino acid Sequence of aMTD105) [compound 105]	–	–	–	4.0	1.3	2.6	–

Substance	Relative Ratio (Fold) A [1] [Fold]	Relative Ratio (Fold) B [2] [Fold]	Relative Ratio (Fold) C [3] [Fold]	Relative Ratio (Fold) A [4] [Fold]	Relative Ratio (Fold) C [5] [Fold]	Relative Ratio (Fold) B [6] [Fold]	also measured
743 (AIAIALVPVALP; Amino acid Sequence of aMTD743) [compound 743]	7.4	4.9	2.5	–	–	–	–
243 (AAVLLPVALAAP; Amino acid Sequence of aMTD243) [compound 243]	–	–	–	5.9	2.0	3.9	–
784 (VAALPAVALVVP; Amino acid Sequence of aMTD784) [compound 784]	–	–	–	7.1	2.4	4.7	–
906 (AVIALAPVVVAP; Amino acid Sequence of aMTD906) [compound 906]	–	–	–	6.8	2.3	4.6	–
29 (VLPPLPVLPVLP; Amino acid Sequence of rPeptide ID 29) [compound 29]	–	–	–	–	–	–	Relative Ratio to aMTD AVE [7]: 0.07; Relative Ratio (Fold) A (relative cell-permeability of rPeptide vs reference A (not defined)): 1.4 Fold; Relative Ratio (Fold) B (relative cell-permeability of rPeptide vs reference CPP B: MTM12): 0.9 Fold; Relative Ratio (Fold) C (relative cell-permeability of rPeptide vs reference CPP C: MTD85): 0.5 Fold
262 (ALIAVPAIIVAP; Amino acid Sequence of aMTD262) [compound 262]	–	–	–	5.5	1.9	3.7	–
404 (LAAAVIPAAILP; Amino acid Sequence of aMTD404) [compound 404]	18.9	12.6	6.4	–	–	–	–
832 (AVAAIVPVIVAP; Amino acid Sequence of aMTD832) [compound 832]	–	–	–	4.1	1.4	2.7	–
504 (LIVALAVPALAP; Amino acid Sequence of aMTD504) [compound 504]	–	–	–	3.3	1.1	2.2	–
805 (LVLIAAAPIALP; Amino acid Sequence of aMTD805) [compound 805]	22.3	14.9	7.6	–	–	–	–
744 (AAVVIVAPVALP; Amino acid Sequence of aMTD744) [compound 744]	11.0	7.3	3.7	–	–	–	–
806 (LVALAVPAAVLP; Amino acid Sequence of aMTD806) [compound 806]	36.7	24.6	12.4	–	–	–	–
875 (AIAIVVPAVAVP; Amino acid Sequence of aMTD875) [compound 875]	13.8	9.2	4.7	–	–	–	–
665 (LAIVLAAPVAVP; Amino acid Sequence of aMTD665) [compound 665]	14.7	9.9	5.0	–	–	–	–
13 (AAALVPVVALLP; Amino acid Sequence of aMTD13) [compound 13]	–	–	–	7.0	2.4	4.7	–
84 (AAVAAPLLLALP; Amino acid Sequence of aMTD84) [compound 84]	–	–	–	1.5	0.5	1.0	–
542 (ALALIIVPAVAP; Amino acid Sequence of aMTD542) [compound 542]	16.2	10.8	5.5	–	–	–	–
161 (AVIALPALIAAP; Amino acid Sequence of aMTD161) [compound 161]	34.5	23.0	11.6	–	–	–	–
825 (IVAVIVAPAVAP; Amino acid Sequence of aMTD825) [compound 825]	69.7	46.6	23.5	–	–	–	–
68 (VAPVLPAAPLVP; Amino acid Sequence of rPeptide ID 68) [compound 68]	–	–	–	–	–	–	Relative Ratio to aMTD AVE [7]: 0.32
